# Target: T1, IL-17A/A (Homo sapiens, UniProt Q16552)
# T1 construct: purchased Genscript Z03228
# T1 sequence (Q16552 24-155): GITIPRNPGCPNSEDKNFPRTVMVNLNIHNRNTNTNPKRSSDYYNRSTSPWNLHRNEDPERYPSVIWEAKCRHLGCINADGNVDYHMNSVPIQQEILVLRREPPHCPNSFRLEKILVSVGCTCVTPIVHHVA
# Test: HEK-Blue IL-17A/A inhibition assay (SEAP reporter)
# Assay type: cell-based
# Conditions: HEK-Blue cells (HEK 293 expressing IL-17RA, IL-17RC, Act1); IL-17A/A stimulation; 20 hours; SEAP read at A630; 4-parameter fit
# Summary of the method: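 IC50 from a 4-parameter fit of SEAP signal (Quanti-Blue, A630) after 20 h co-incubation of compound and IL-17A/A. Reporter line: HEK 293 expressing IL-17RA, IL-17RC and Act1 with NFκB-SEAP; compound top final 10, 1 or 0.3 uM, DMSO 0.1% final.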
row,Compound,IC50
1,"N-((S)-1,1-dicyclopropyl-3-((2-fluoro-4-((S)-1-oxo-1-(3-(trifluoromethyl)azetidin-1-yl)propan-2-yl)phenyl)amino)-3-oxopropan-2-yl)-1-ethyl-1H-pyrazole-5-carboxamide [Compound 14]",100 to 1000 nM
2,"CC(C(=O)NCC(F)(F)F)c1cc(F)c(NC(=O)[C@@H](NC(=O)c2ccnn2C(C)C)C(C2CC2)C2CC2)cc1C#N (single isomer, unassigned) [Compound 118]",> 1000 nM
3,"C[C@H](C(=O)NCC(F)(F)F)c1ccc(NC(=O)[C@@H](NC(=O)c2ccnn2C2CCCNC2)C(C2CC2)C2CC2)c(F)c1 (single isomer, unassigned) [Compound 96]",> 1000 nM
4,"CC(C)n1nccc1C(=O)N[C@H](C(=O)Nc1ccc([C@H](C)C(=O)N2CC(O)CC2C(F)(F)F)cc1F)C(C1CC1)C1CC1 (single isomer, unassigned) [Compound 145]",> 1000 nM
5,"CCn1nccc1C(=O)N[C@H](C(=O)Nc1cc(C(F)(F)F)c(C(C)C(=O)NC(CO)C(F)(F)F)cc1F)C(C1CC1)C1CC1 (single isomer, unassigned) [Compound 241]",> 1000 nM
6,"CC(C)n1nccc1C(=O)N[C@H](C(=O)Nc1ccc(C(C(=O)NCC(F)(F)F)N2CCOCC2)cc1F)C(C1CC1)C1CC1 (single isomer, unassigned) [Compound 140]",> 1000 nM

# Other lines, results leading:
row,IC50,Compound
1,< 100 nM,"C=Cc1cc(NC(=O)[C@@H](NC(=O)c2ccnn2C(C)C)C(C2CC2)C2CC2)c(F)cc1C(C)C(=O)NCC(F)(F)F (mixture of isomers) [Compound 110, N-((2S)-1,1-dicyclopropyl-3-((2-fluoro-4-(1-oxo-1-((2,2,2-trifluoroethyl)amino)propan-2-yl)-5-vinylphenyl)amino)-3-oxopropan-2-yl)-1-isopropyl-1H-pyrazole-5-carboxamide]"
2,100 to 1000 nM,"COc1cc(NC(=O)[C@@H](NC(=O)c2ccnn2C(C)C)C(C2CC2)C2CC2)c(F)cc1C(C)C(=O)N1CC(O)CC1C(F)(F)F (single isomer, unassigned) [Compound 213]"
3,100 to 1000 nM,"CCn1nccc1C(=O)N[C@H](C(=O)Nc1ccc([C@H](C)C(=O)NC(CCO)C(F)(F)F)cc1F)C(C1CC1)C1CC1 (stereo partly drawn) [Compound 12, N-((2S)-1,1-dicyclopropyl-3-((2-fluoro-4-((2S)-1-oxo-1-((1,1,1-trifluoro-4-hydroxybutan-2-yl)amino)propan-2-yl)phenyl)amino)-3-oxopropan-2-yl)-1-ethyl-1H-pyrazole-5-carboxanude]"
4,100 to 1000 nM,"CNCCN(CC(F)(F)F)C(=O)[C@@H](C)c1ccc(NC(=O)[C@@H](NC(=O)c2ccnn2C(C)C)C(C2CC2)C2CC2)c(F)c1 [Compound 22, N-((S)-1,1-dicyclopropyl-3-((2-fluoro-4-((S)-1-((2-(methylamino)ethyl)(2,2,2-trifluoroethyl)amino)-1-oxopropan-2-yl)phenyl)amino)-3-oxopropan-2-yl)-1-isopropyl-1H-pyrazole-5-carboxamide]"
5,100 to 1000 nM,"CC(C)n1nccc1C(=O)N[C@H](C(=O)Nc1ccc([C@H](C)C(=O)N2CC[C@H]2C(F)(F)F)cc1F)C(C1CC1)C1CC1 [Compound 64, N-((S)-1,1-dicyclopropyl-3-((2-fluoro-4-((S)-1-oxo-1-((S)-2-(trifluoromethyl)azetidin-1-yl)propan-2-yl)phenyl)amino)-3-oxopropan-2-yl)-1-isopropyl-1H-pyrazole-5-carboxamide]"
6,< 100 nM,"Cc1cc(NC(=O)[C@@H](NC(=O)c2ccnn2C(C)C)C(C2CC2)C2CC2)c(F)cc1C(C)C(=O)N1CC(O)CC1C(F)(F)F (single isomer, unassigned) [Compound 173]"
7,100 to 1000 nM,"CCn1nccc1C(=O)N[C@H](C(=O)Nc1ccc([C@H](C)C(=O)N(C)CC(F)(F)F)cc1F)[C@H]1CCc2ccccc21 [Compound 90, N-((S)-1-((S)-2,3-dihydro-1H-inden-1-yl)-2-((2-fluoro-4-((S)-1-(methyl(2,2,2-trifluoroethyl)amino)-1-oxopropan-2-yl)phenyl)amino)-2-oxoethyl)-1-ethyl-1H-pyrazole-5-carboxamide]"
